Entries after “also recorded” stand apart in the source; their conditions may differ. Where two headings read alike, the source gives them in different places.
Tests used:
AChE = target: T1, AChE (Electrophorus electricus, UniProt O42275); assay: Enzyme kinetic analysis against AChE; assay type: biochemical; conditions: for Ki: Dixon and Cornish–Bowden plots; for type of AChE inhibition: Lineweaver–Burk plots, ATCI 3.75–15.00 mM; for reversibility of AChE inhibition: initial velocity versus enzyme concentration, AChE 0.025–0.10 U/mL
T1 construct: purchased Sigma-Aldrich (St. Louis, MO, USA)
T1 sequence (O42275 24-633): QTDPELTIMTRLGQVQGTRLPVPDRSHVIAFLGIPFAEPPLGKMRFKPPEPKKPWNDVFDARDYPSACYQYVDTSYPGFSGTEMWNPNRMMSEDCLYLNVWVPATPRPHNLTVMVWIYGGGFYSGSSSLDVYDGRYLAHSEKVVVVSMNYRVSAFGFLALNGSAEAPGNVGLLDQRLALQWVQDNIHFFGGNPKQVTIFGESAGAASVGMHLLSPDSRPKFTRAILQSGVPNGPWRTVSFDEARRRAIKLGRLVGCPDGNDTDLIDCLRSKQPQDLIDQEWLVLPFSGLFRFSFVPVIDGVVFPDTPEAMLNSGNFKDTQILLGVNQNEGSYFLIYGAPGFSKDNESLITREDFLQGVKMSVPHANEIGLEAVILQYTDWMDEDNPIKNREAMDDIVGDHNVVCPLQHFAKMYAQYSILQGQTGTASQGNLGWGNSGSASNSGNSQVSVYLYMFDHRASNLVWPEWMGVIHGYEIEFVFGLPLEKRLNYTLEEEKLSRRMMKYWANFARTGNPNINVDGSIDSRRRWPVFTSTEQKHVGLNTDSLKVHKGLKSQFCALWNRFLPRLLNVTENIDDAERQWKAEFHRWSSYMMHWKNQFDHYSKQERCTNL
Procedure: […]. Inhibition constants for AChE were determined from Dixon plot (1/Vi vs. (I)) and Cornish–Bowden transformation ((S)/Vi vs. (I)).

[1] = Metal-binding studies (UV spectra); assay type: physicochemical; conditions: UV 200–400 nm, compound 20 μM, CuCl2, FeCl2, ZnCl2, AlCl3 20 μM, methanol, 30 min
Procedure: The chelating studies were performed on an ultraviolet–visible spectrophotometry meter (HITACHI U-3900H, Tokyo, Japan). The UV absorption spectra of the test compound alone (20 μM, final concentration) or in the presence of CuCl2, FeCl2, ZnCl2 and AlCl3 (20 μM, final concentration) were recorded with the wavelength ranging from 200 to 400 nm after incubating for 30 min in methanol at room temperature.

[2] = target: T2, AChE (EC 3.1.1.7, from electric eel) (Electrophorus electricus, UniProt O42275); assay: biochemical; assay type: biochemical; conditions: for SI for AChE = IC50 BChE/IC50 AChE: selectivity index for AChE over BChE
T2 construct: purchased Sigma-Aldrich (St. Louis, MO, USA)
T2 sequence (O42275 24-633): as above
Procedure: (§1) A Waters Acquity UPLC Class I/Xevo G2Q-Tof mass spectrometer (Milford, MA, USA) was used to obtain the high-resolution ESI-MS (HR-ESI-MS) data. ^1H and ^13C NMR spectra were acquired on a Bruker Avance III 400 spectrometer spectrometer (Karlsruhe, Germany) with TMS as an internal standard. ^1H-^1H DQF-COSY, NOESY, TOCSY, HSQC and HMBC spectra were recorded using standard Bruker programs spectrometer (Topspin 3.5pl6, Karlsruhe, Germany). […] Thin layer chromatography (TLC) analysis was performed on alumina plates coated with silica gel 60 and silica gel 60 RP-18 F254 (Merck) spectrometer (Darmstadt, Germany). Chromatographic separation was performed on self-packed columns with silica gel (Anhui Liangchen Silicon Material Co. Ltd., China) and reversed-phase silica gel (ODS-A 12 nm S-50 μm YMC Co., Kyoto, Japan). AChE (EC 3.1.1.7, from electric eel), BChE (EC 3.1.1.8, from equine serum), 5,5′-dithiobis(2-nitrobenzoic acid) (DTNB), acetylthiocholine iodide (ATCI), and butyrylthiocholine iodide (BTCI) were purchased from Sigma-Aldrich (St. Louis, MO, USA).
(§2) AChE (EC 3.1.1.7, from electric eel) and BChE (EC 3.1.1.8, from equine serum) were purchased from Sigma-Aldrich (St. Louis, MO, USA). […] After reaction for 15 min at 25 °C, 10 μL of 10 mM DTNB and 10 μL of 7.5 mM ATCI (BTCI) were added and then incubated for 40 min at 37 °C. […] Blank groups were set up by replacing the sample solution with 20 μL phosphate buffer (Ac). All tests were performed in triplicate.

[3] = target: T3, peripheral anionic site (PAS) of AChE (Electrophorus electricus, UniProt O42275); assay type: binding; conditions: test compounds 100 μM, propidium iodide 1 μM, AChE 5U
T3 construct: purchased Sigma-Aldrich (St. Louis, MO, USA)
T3 sequence (O42275 24-633): as above
Procedure: The assay mixture of AChE (5U) was incubated with test compounds (final concentration 100 μM, 150 μL) for 6 h at 25 °C. After reaction, 50 μL Propidium iodide (1 μM) was added. […] The percentage of displacement was calculated by the following expression: 100 − (IFi/IF0 × 100), where IFi and IF0 are the fluorescence intensities with and without the test compounds, respectively.

[4] = target: T4, BChE (EC 3.1.1.8, from equine serum) (Equus caballus, UniProt P81908); assay: biochemical
T4 construct: purchased Sigma-Aldrich (St. Louis, MO, USA); host or cells: equine serum
T4 sequence (P81908 whole entry): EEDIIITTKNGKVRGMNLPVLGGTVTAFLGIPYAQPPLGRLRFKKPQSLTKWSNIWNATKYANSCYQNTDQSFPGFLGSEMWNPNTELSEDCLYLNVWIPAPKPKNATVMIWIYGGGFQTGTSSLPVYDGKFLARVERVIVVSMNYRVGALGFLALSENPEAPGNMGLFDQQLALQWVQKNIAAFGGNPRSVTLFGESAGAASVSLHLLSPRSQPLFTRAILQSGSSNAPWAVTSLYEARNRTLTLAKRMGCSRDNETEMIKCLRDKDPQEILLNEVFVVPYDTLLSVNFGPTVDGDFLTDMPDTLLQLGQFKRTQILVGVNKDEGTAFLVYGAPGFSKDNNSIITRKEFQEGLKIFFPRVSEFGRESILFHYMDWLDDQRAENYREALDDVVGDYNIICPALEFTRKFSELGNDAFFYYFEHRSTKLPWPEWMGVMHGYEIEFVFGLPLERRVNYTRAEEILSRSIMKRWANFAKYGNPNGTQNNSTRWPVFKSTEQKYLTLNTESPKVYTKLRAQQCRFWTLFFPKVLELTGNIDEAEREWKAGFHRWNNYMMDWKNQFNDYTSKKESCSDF
Procedure: as §1, §2

[5] = means ± SD, at least three independent experiments, read-out: IC50 AChE
[6] = means ± SD, at least three independent experiments, read-out: IC50 BChE

SMILES	Ki (AChE; read-out: inhibition constant Ki,c (competitive component))	Ki (AChE; read-out: inhibition constant Ki,nc (non-competitive component))	type of AChE inhibition (AChE)	reversibility of AChE inhibition (AChE)	reversibility of AChE inhibition (AChE; listed as Buthutin A)	metal binding ability toward Cu2+, Fe2+, Zn2+ and Al3+ [1]	IC50 [2, 5]	SI for AChE = IC50 BChE/IC50 AChE [2]	Propidium Iodide Displacement [3]	IC50 [4, 6]	IC50 [2]	IC50 AChE [2]	IC50 [4]
N=C(N)NCCCCNC(=O)c1ccc(O)cc1 [Compound 1, N-(4-guanidinobutyl)-4-hydroxybenzamide]	2.64 ± 0.35 µM	5.66 ± 0.82 µM	mixed type of inhibition	reversible inhibitors	reversible	satisfactory biometal binding abilities; also recorded: potent metal binding ability; also recorded: satisfactory metal-binding properties	7.83 ± 0.06 µM	6.05	18.29 ± 0.53%	47.4 ± 0.95 µM	–	–	–
N=C(N)NCCCCNC(=O)c1ccccn1 [Compound 2, N-(4-guanidinobutyl)picolinamide]	–	–	mixed type of inhibition	reversible inhibitors	–	–	61.4 ± 2.34 µM	1.99	17.95 ± 0.98%	123 ± 5.21 µM	–	–	–
C[n+]1cccc(C(=O)[O-])c1 [Compound 3]	–	–	–	–	–	satisfactory biometal binding abilities; also recorded: potent metal binding ability; also recorded: satisfactory metal-binding properties	–	–	–	–	97.3 ± 4.18 µM	weaker inhibitory effect	442 ± 7.99 µM
CC(C)CCSS [Compound 4, 3-methylbuthyl hydrodisulfide]	–	–	–	–	–	–	40.9 ± 3.21 µM	3.73	–	153 ± 7.22 µM	–	–	–

Reference: PMC8588048, “Discovery of Guanidine Derivatives from Buthus martensii Karsch with Metal-Binding and Cholinesterase Inhibition Properties” (Molecules, 2021)
